Data from patent US20090209605A1, “NEMATICIDAL COMPOSITIONS” (Devgen N.V., priority 2004, published 2009).

Columns and labels:
Assay type in all cases: in vivo
[1] = test system: root-knot nematode (Meloidogyne spp); assay: Nematicide field trial on tomato: root galling and yield; conditions: for Average root galling: 0-5 Lamberti scale
Description: (§1) Open field tomatoes (Lycopersicon esculentum, variety incas) were grown on sandy soil with a natural root-knot nematode (Meloidogyne spp) population. Soil samples, collected prior to planting, contained on average 113 J2 juveniles per 100 g soil. A program of 5 applications with intervals of about 14 days was started two days after transplantation.
(§2) An experimental pattern at Complete Randomized Blocks with four replicas was adopted. Besides the experimental products, each test also included an untreated control and a treatment with the standard commercial product VYDATE 10L (10%) applied in accordance to label instructions.
The read-outs are the average yield of the marketable tomatoes per plant (Table 7). The level of nematode attack of the root system at the time of harvesting was assessed by means of the lamberti scoring.

Meloidogyne incognita = assay: Root infestation on agar plate: root knot count on potato microplant roots; conditions: 60 μM in agar, galls counted 5 weeks after inoculation, four replicates
Description: 9 cm petri dishes were filled with a 15 ml agar. One stem cutting of a potato microplant (Solanum tuberosum cv. Desirée) was placed on top of the agar layer. After 2 to 3 weeks of incubation at 20° C., the root system was sufficiently developed to be inoculated.
The test compounds (see Table 1) were added 2 days before inoculation by way of spreading a 2 ml DMSO-solution with the compound over the agar and allowing the compound to diffuse in the agar during two days at constant temperature of 20° C. During incubation, the plates are protected from light in a dark incubator. The resulting concentration of each compound in each agar plate was 60 μM.
After incubation, approximately 400 axenic juveniles of Meloidogyne incognita species were added to the plate.
The plates were incubated in the dark at a constant temperature of 20° C. and 5 weeks after inoculation the number of galls formed on the roots were determined by counting. Also any toxic effect of the test compounds on the roots was recorded. 8 weeks after inoculation the plates were stored at low temperature.
Each compound was tested in four replicates. Positive controls were treated with different concentrations of Aldicarb, a known nematicide. Negative controls included 5 replicates of double negative controls (no compound, no nematode), 5 replicates of single negative controls (no compound, with nematode) and 5 replicates of DMSO controls (DMSO solution, with nematode).

[2] = test system: root-knot nematode (Meloidogyne spp); assay: Nematicide field trial on cucumber: root galling and yield; conditions: for Average root galling: 0-5 Lamberti scale
Description: as §1, with “ground grown cucumber (Cucumis sativus cv Carine)” for “field tomatoes (Lycopersicon esculentum, variety incas)”, “8” for “113”, “4” for “5”, “six” for “two”
as §2
[…] The level of nematode attack of the root system at the time of harvesting was assessed by means of the lamberti scoring.

[3] = test system: Meloidogyne incognita nematodes; assay: Pot Assay 1: Meloidogyne infection of potato, egg masses/galls on roots; conditions: potato in pot, week 8 after inoculation
Description: 500 ml clay pots were filled with 400 ml of silver sand. One tuber of potato ( Solanum tuberosum cv. Bintje) was planted in the sand. After 2 to 3 weeks incubation, the potato plant was sufficiently developed to be inoculated.
Plants were grown under the usual standard greenhouse conditions at 14° C.-18° C., with 16 hours light and 8 hours dark and 80-90% relative humidity. The pots were watered using individual drippers and fertilizers were added under the form of macro- and micro nutrients according to plant growth requirements. When needed, the plants were sprayed with fungicides and insecticides.
The compounds as described herein were added one day before inoculation. The compounds were dissolved in a 20 ml DMSO-solution and spread over the sand surface. The final concentration is calculated under the assumption that the compound is diffused entirely in the pot. This process occurred during two days at the normal greenhouse conditions described above.
After compound incubation, approximately 1500 juveniles of Meloidogyne incognita nematodes were added to the pots.
The pots were incubated at the described greenhouse conditions until nematode development was completed. At week 8 after inoculation the number of galls formed on the roots was counted after washing off the sandy substrate. Also the effect of the compound on the plant development was recorded.
Every compound was tested in three replicates. Positive control plants were treated with different concentrations of aldicarb, a known nematicide. Negative controls involved 12 replicates of double negative controls (no compound, no nematode), 12 replicates of single negative controls (no compound, no DMSO, with nematode), 24 replicates of DMSO controls (DMSO solution, with nematode).
As assessment of the root development was taken into account.

tomato (cv. Rio Grande) = assay: Pot Assay 2: root development (vigor of roots) of tomato; conditions: visual value 0 to 10 (10 equal to control)
Description: Phytotoxicity of compounds as described herein when used as a nematicide, was measured as follows. […] At that moment, plant emergence was assessed for the plants treated with any of the compounds as described herein, by counting the number of plants per compound-concentration.
Vigor of roots was also assessed once the plants are well established so as not to loose plants. To assess vigor of the plants or roots, a visual value ranging from 0 to 10 (0 no vigor, 10 equal to control) was scored per compound-concentration.

Meloidogyne nematodes = assay: Pot Assay 2: Meloidogyne infection of tomato, % infestation of roots; conditions: tomato in infested soil
Description: The soil used in this assay originated from a plot, heavily infested with Meloidogyne nematodes. Part of this soil was sterilized by autoclaving and was used as negative control. Sandy soil, which was not infested with nematodes, was pursued from a commercial source.
Plastic seedling trays with wells of 60 ml capacity were filled with about 40 ml of soil per well. 5 ml of water per well was used for irrigation.
Compounds as described herein were tested in 4 different rates and with 12 replicates for each concentration. The compounds as described herein were stored as dry films of 4 different concentrations. The day of the application of the compounds, all the dry films were dissolved in 60 ml water and poured into the 12 replicate wells: 5 ml per well. Every tray of 12 wells was identified with a label, indicating compound and concentration used. The 4 final rates in the soil of the tested compound were approximately 0.05 mg, 0.20 mg, 1 mg and 5 mg. These amounts translate to field application rates respectively as 30, 120, 600 and 3000 g per hectare.
3-5 days after application of the tested compound, tomato seeds (cv. Rio Grande) were sown in the wells by hand, at about 2 cm deep. A light cover of vermiculite on the surface was used to avoid dehydration. Plants were irrigated by micro-nebulization 3-4 times per week at a rate of 3 L/m^2, weeded by hand and treated with fertilizers, fungicide and insecticides when needed.
Their resistance against nematode infection was monitored and the efficacy of compounds described herein as a nematicide was measured. Furthermore the phytotoxicity of the test compounds was evaluated.
Efficacy of the compounds described herein as nematicide was measured by giving the roots a percentage of infestation measured as follows. Plants were grown to reach good development of the roots, which corresponds to plants grown to about 10 cm high at about one month after emergence. After removal of the soil from the roots by rinsing with water, the roots were visually inspected and root galls were counted on 4 plants of the set of 12 replicate plants.
Positive control plants were treated with a 10 micromolar concentration of oxamyl (Vydate, 10% SL; the rate of 10 micromolar corresponds to a commercial rate of 20 l/ha), a known nematicide. Negative controls involved double negative controls (no compound, sterile soil), and single negative controls (no compound, with nematode infested soil).

Heterodera nematode = assay: Pot Assay 3: Heterodera infection of sugar beet, crop vigor and crop height; conditions: infested soil
Source text: The soil used in this assay originated from a Heterodera nematode infested sugar plot of which the infestation was confirmed by means of several soil analyses. Each pot was filled up with a soil mixture composed as follows: a) the infested soil was constituted by silt loam soil (about 600 g/pot) mixed with sterile peat (about 600 g/pot) and sterile cork (about 200 g/pot); b) the sterile soil was instead constituted only by sterile peat (1200 g/pot) and sterile cork (200 g/pot).
(§3) Each compound or compound mixture as described herein was tested in 4 different rates with 4 replicates per rate. One pot per replicate was used in which 18 beava sugar beet seeds (variety GEA (KWS)) were sown. After crop germination, the number of plants was reduced to 10 plants. The 4 rates added to the soil of the tested compounds or compound mixtures were 0.05 mg, 0.20 mg, 1 mg and 5 mg. These amounts translate to field application rates respectively as 30, 120, 600 and 3000 g per hectare.
Efficacy of the compounds described herein as nematicide was measured by visual inspection of the crop vigor and the crop height. The crop vigor evaluation is based on a 0-100 scale, where 0 is “no vigor” and 100 is “maximum vigor”. The crop height development is based on a measurement, in cm, per plant, excluding the root system.
Positive control plants were treated with Oxamyl (Vydate 5 G, 5% gr) at a rate of 40 kg fp per ha. Negative controls involved single negative controls (no compound, with nematode infested soil; referenced as “Untreated 1”) and double negative controls (no compound, sterile soil; referenced as “Untreated 2”).

[4] = test system: sugar beet (variety GEA (KWS)); assay: Pot Assay 3: phytotoxicity, number of sugar beet plants emerged
Description: as §3
Phytotoxicity assessments were carried by assessing any possible effects of the chemicals on the crop, such as chlorosis, yellowing, stunting, in comparison to the untreated control without nematodes.

[5] = Product Rate 1 (footnote g ai/ha)
[6] = Product Rate 2 (footnote g ai/ha)
[7] = Product Rate 4 (footnote g ai/ha)
[8] = Product Rate 8 (footnote g ai/ha)

CC(C)NC(=O)N1CC(=O)N(c2cc(Cl)cc(Cl)c2)C1=O [XXV]
Average yield of marketable fruits [1, 5]: 1.45 kg/plant/pot | Average root galling [1, 5]: 1.8 | Average yield of marketable fruits [1, 6]: 1.33 kg/plant/pot | Average root galling [1, 6]: 1.3 | Root knot count, average of the replicate counts (Meloidogyne incognita): 17 | Average yield of marketable fruits ([2]; Product Rate 500 g ai/ha): 6.7 kg/plant/pot | Average root galling ([2]; Product Rate 500 g ai/ha): 2.75 | Average yield of marketable fruits ([2]; Product Rate 1500 g ai/ha): 9.1 kg/plant/pot | Average root galling ([2]; Product Rate 1500 g ai/ha): 1.75 | number of egg masses (galls) on roots, Replicate 1 ([3]; 10 μM): 50 | number of egg masses (galls) on roots, Replicate 2 ([3]; 10 μM): 50 | number of egg masses (galls) on roots, Replicate 1 ([3]; 50 μM): 30 | number of egg masses (galls) on roots, Replicate 2 ([3]; 50 μM): 25 | number of egg masses (galls) on roots, Replicate 3 ([3]; 50 μM): 20

CCN(Cc1ccc(Cl)nc1)/C(=C/[N+](=O)[O-])NC [XXIX]
ROOT DEV. (tomato (cv. Rio Grande); RATE 0.05 mg): 7.9 | ROOT DEV. (tomato (cv. Rio Grande); RATE 0.2 mg): 7.7 | ROOT DEV. (tomato (cv. Rio Grande); RATE 1 mg): 7.5 | ROOT DEV. (tomato (cv. Rio Grande); RATE 5 mg): 6.6 | % INF. (% Infestation) (Meloidogyne nematodes; RATE 0.05 mg): 3.8% | % INF. (% Infestation) (Meloidogyne nematodes; RATE 0.2 mg): 1.3% | % INF. (% Infestation) (Meloidogyne nematodes; RATE 1 mg): 2.5% | % INF. (% Infestation) (Meloidogyne nematodes; RATE 5 mg): 5.0% | Root knot count, average of the replicate counts (Meloidogyne incognita): 17.5 | number of egg masses (galls) on roots, Replicate 1 ([3]; 50 μM): 50 | number of egg masses (galls) on roots, Replicate 2 ([3]; 50 μM): 40 | number of egg masses (galls) on roots, Replicate 3 ([3]; 50 μM): 40

CC(C)[C@@H](Nc1ccc(C(F)(F)F)cc1Cl)C(=O)OC(C#N)c1cccc(Oc2ccccc2)c1 (stereo partly drawn) [XXXVI]
crop height (cm) (Heterodera nematode; Rate 0.05 mg): 9 cm | crop vigor (max 100%) (Heterodera nematode; Rate 0.05 mg): 70% | crop height (cm) (Heterodera nematode; Rate 0.2 mg): 14 cm | crop vigor (max 100%) (Heterodera nematode; Rate 0.2 mg): 100% | crop height (cm) (Heterodera nematode; Rate 1 mg): 15 cm | crop vigor (max 100%) (Heterodera nematode; Rate 1 mg): 100% | crop height (cm) (Heterodera nematode; Rate 5 mg): 13 cm | crop vigor (max 100%) (Heterodera nematode; Rate 5 mg): 90% | # crops emerged (max 18) ([4]; Rate 0.05 mg): 18 | # crops emerged (max 18) ([4]; Rate 0.2 mg): 18 | # crops emerged (max 18) ([4]; Rate 1 mg): 18 | # crops emerged (max 18) ([4]; Rate 5 mg): 18 | Average yield of marketable fruits [1, 7]: 1.43 kg/plant/pot | Average root galling [1, 7]: 1.8 | Average yield of marketable fruits [1, 8]: 1.26 kg/plant/pot | Average root galling [1, 8]: 1.8 | Root knot count, average of the replicate counts (Meloidogyne incognita): 0 | Average yield of marketable fruits ([2]; Product Rate 250 g ai/ha): 9.3 kg/plant/pot | Average root galling ([2]; Product Rate 250 g ai/ha): 1.88 | Average yield of marketable fruits ([2]; Product Rate 500 g ai/ha): 9.6 kg/plant/pot | Average root galling ([2]; Product Rate 500 g ai/ha): 1.63

COC(=O)c1sccc1S(=O)(=O)NC(=O)Nc1nc(C)nc(OC)n1 [XL]
crop height (cm) (Heterodera nematode; Rate 0.05 mg): 12 cm | crop vigor (max 100%) (Heterodera nematode; Rate 0.05 mg): 90% | Root knot count, average of the replicate counts (Meloidogyne incognita): 0

c1coc(-c2nc3ccccc3[nH]2)c1 [XVI]
crop height (cm) (Heterodera nematode; Rate 0.05 mg): 13 cm | crop vigor (max 100%) (Heterodera nematode; Rate 0.05 mg): 90% | # crops emerged (max 18) ([4]; Rate 0.05 mg): 18 | Root knot count, average of the replicate counts (Meloidogyne incognita): 14.5 | number of egg masses (galls) on roots, Replicate 2 ([3]; 10 μM): 50 | number of egg masses (galls) on roots, Replicate 2 ([3]; 50 μM): 40 | number of egg masses (galls) on roots, Replicate 3 ([3]; 50 μM): 15
